Experimental data: patent publication US20060178293A1, “Cardiotonic polypeptides” (priority 2003, published 2006)

Test system: isolated cardiomyocytes derived from adult rats
Conditions: electrically stimulated; 0.35 μg/ml (FIG. 5)

SMILES: NCCc1ccc(O)c(O)c1 [inotropin]
- mechanical contractility (cell length changes), optically monitored: obvious increase in contractility
